Results reported in US20220265582A1, “EFFECTS OF MESCALINE AND OF MESCALINE ANALOGS (SCALINES) TO ASSIST PSYCHOTHERAPY” (Universitätsspital Basel, priority 2021, published 2022).
Where two headings read alike, the source gives them in different places.

Columns and labels:
healthy subjects [1] = assay: 5-Dimensional Altered States of Consciousness (5D-ASC) scale, Clinical Study I; type: in vivo, human; conditions: 6 subjects
Experimental: 5-Dimensional Altered States of Consciousness (5D-ASC): The 5-dimensional Altered States of Consciousness (5D-ASC) Scale is a visual analog scale consisting of 94 items (117, 118). The instrument contains five main scales (FIG. 6A) and 11 newer subscales (FIG. 6B) assessing mood, anxiety, derealization, depersonalization, changes in perception, auditory alterations, and reduced vigilance. The scale is well-validated (118). The 5D-ASC scale was administered once at the end of the session and subjects were instructed to retrospectively rate peak alterations that have been experienced during the study session. Each item of the scale is scored on a 0-100 mm VAS. The attribution of the individual items to the subscales of the 5D-ASC was analyzed according to (117, 118) and as shown in FIGS. 6A-6B. The scale was be administered once at the end of each test session.

healthy subjects [2] = assay: Adverse effects, list of complaints (LC), Clinical Study I; type: in vivo, human; conditions: for mean total LC score: six human volunteers, oral mescaline 300 mg, psilocybin 20 mg, LSD 100 μg, LC 12 hours after administration
Experimental: Adverse effects (list of complaints): The list of complaints (LC) consists of 66 items offering a global score measuring physical and general discomfort (119). The LC list was administered 12 hours after administration of the drug with reference to complaints throughout the entire session.

[3] = LSD vs. MDMA (45); cited from earlier work
5-HT2A receptor = 5-HT2A receptor (Homo sapiens, UniProt P28223); conditions: FIG. 2 (62); cited from earlier work
healthy subjects [4] = conditions: 100 μg dose; cited from earlier work
healthy subjects [5] = assay: Visual Analog Scales (VAS) of acute subjective effects, Clinical Study I; conditions: for duration of subjective effects (VAS any drug effect): mescaline 300 mg, psilocybin 20 mg, LSD 100 μg oral
healthy subjects [6] = assay: Autonomic measures (blood pressure, heart rate, body temperature), Clinical Study I; type: in vivo, human
Experimental: Autonomic measures: Blood pressure, heart rate, and body temperature were recorded at baseline and repeatedly throughout the session. Blood pressure (systolic and diastolic) and heart rate were measured with an automatic oscillometric device. Body temperature was measured with an ear thermometer.

healthy subjects [7] = conditions: mescaline sulfate 500 mg, 12 subjects, MDE, 14 subjects, cited from earlier work
D2 receptors = D2 receptors (Homo sapiens, UniProt P14416); conditions: FIG. 3; cited from earlier work
5-HT transporter (SERT) = 5-HT transporter (SERT) (Homo sapiens, UniProt P31645); conditions: cited from earlier work
humans = conditions: cited from earlier work
healthy male subjects = conditions: cited from earlier work; for psychoactive or cardiostimulant properties of metabolites administered to humans: in vivo
rodent = rodent tests (49); cited from earlier work
[8] = six healthy volunteers, doses used
[9] = 500 mg mescaline hydrochloride orally

Chain of 5-HT transporter (SERT) (P31645 whole entry): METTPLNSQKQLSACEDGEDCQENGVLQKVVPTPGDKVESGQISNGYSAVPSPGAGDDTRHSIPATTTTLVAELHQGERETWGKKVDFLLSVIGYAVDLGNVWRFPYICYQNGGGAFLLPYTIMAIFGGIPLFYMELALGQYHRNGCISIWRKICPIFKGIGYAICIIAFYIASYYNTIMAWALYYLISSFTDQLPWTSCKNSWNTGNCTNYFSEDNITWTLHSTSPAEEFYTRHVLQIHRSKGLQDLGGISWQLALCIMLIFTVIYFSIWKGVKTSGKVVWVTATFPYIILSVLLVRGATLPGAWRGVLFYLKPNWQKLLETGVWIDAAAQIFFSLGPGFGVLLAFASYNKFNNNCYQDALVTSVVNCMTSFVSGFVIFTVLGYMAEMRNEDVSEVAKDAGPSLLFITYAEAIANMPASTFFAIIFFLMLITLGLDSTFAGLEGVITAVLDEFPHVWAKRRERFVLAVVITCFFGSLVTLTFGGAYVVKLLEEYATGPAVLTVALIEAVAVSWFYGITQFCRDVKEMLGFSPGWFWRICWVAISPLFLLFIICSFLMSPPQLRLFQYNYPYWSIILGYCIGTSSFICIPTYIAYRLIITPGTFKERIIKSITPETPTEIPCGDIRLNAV
Chain of 5-HT2A receptor (P28223 whole entry): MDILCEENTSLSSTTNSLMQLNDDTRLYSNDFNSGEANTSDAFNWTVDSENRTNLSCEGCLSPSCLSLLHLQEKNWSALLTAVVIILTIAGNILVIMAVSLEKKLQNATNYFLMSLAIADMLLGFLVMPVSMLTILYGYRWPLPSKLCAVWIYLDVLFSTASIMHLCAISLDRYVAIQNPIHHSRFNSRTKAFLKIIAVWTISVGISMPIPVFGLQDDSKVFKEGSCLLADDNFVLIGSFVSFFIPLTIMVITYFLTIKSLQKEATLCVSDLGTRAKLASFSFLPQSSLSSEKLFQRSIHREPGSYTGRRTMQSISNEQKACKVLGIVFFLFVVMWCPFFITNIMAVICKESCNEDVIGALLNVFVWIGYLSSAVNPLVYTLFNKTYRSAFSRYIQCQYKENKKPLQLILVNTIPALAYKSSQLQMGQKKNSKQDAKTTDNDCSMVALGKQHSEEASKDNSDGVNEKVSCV
Chain of D2 receptors (P14416 whole entry): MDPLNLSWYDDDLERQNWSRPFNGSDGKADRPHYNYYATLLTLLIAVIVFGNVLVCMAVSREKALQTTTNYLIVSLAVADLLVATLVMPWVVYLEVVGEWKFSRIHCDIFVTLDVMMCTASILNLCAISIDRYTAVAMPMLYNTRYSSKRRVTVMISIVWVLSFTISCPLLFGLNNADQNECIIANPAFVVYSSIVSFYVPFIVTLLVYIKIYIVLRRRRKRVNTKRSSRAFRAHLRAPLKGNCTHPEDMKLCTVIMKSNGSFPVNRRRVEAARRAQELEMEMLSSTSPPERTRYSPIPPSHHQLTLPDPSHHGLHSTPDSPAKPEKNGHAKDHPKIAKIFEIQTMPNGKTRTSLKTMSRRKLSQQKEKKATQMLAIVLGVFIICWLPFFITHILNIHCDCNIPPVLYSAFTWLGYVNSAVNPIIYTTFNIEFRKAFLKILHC

CCN(CC)C(=O)[C@@H]1C=C2c3cccc4[nH]cc(c34)C[C@H]2N(C)C1 [LSD, lysergic acid diethylamide, reference compound]
overall peak effects (total 3D-OAV scores) (healthy subjects [1]; LSD 100 μg, psilocybin 20 mg): equally strong overall peak effects
mean total LC score (healthy subjects [2]): 5.4
AED score [3]: 26
OB score [3]: 43
VR score [3]: 50
binding potency at the 5-HT2A receptor (rank) (5-HT2A receptor): binds most potently
duration of effects (healthy subjects [4]): 8 h
time of peak responses (healthy subjects [4]): 3 h
area under the effect-time curve, visual and auditory perception (VAS) (healthy subjects [5]; doses used): greater
bad drug effect (VAS) peaks (healthy subjects [5]; doses used): peaks lower for LSD and mescaline compared with psilocybin
ego-dissolution (VAS) (healthy subjects [5]; doses used): mostly increased
stimulated (VAS) (healthy subjects [5]; doses used): greater stimulation than mescaline
synesthesia, "sounds influenced what I saw" (VAS) (healthy subjects [5]; doses used): highest ratings
visual and auditory perception change (VAS), ratings/peak (healthy subjects [5]; doses used): highest ratings
area under the effect over time curve (VAS any/good drug effect) (healthy subjects [5]; [8]): greater
duration of subjective effects (VAS any drug effect) (healthy subjects [5]; six healthy volunteers): lasted similarly long

COc1cc(CCN)cc(OC)c1OC [mescaline, 3,4,5-trimethoxyphenethylamine]
total alterations of consciousness (total 3D-OAV score) relative to LSD (100 μg) or psilocybin (20 mg) (healthy subjects [1]; mescaline 300 mg oral, peak responses rated 12 hours after administration): approximately 50%
increases in blood pressure, heart rate and body temperature after mescaline (healthy subjects [6]; 6 subjects, mescaline 300 mg): tended to be attenuated compared with both psilocybin and LSD
thermogenic effects (healthy subjects [6]; Example 1): reduced thermogenic effects of mescaline compared to psilocybin
effects on heart rate (healthy subjects [6]; doses used, not statistically confirmed): tended to be lower than those of psilocybin
overall tolerability of acute administration (healthy subjects [2]; doses used): overall similar to that of LSD or psilocybin
mean total LC score (healthy subjects [2]): 8.8
average APZ score AIA (anxious ego-dissolution) (healthy subjects [7]): 7.1
average APZ score VUS (visionary restructuralization) (healthy subjects [7]): 7.4
average APZ score OSE (oceanic boundlessness) (healthy subjects [7]; indirect comparison): 6.2
affinity for D2 receptors (D2 receptors): no affinity
interaction with the SERT (5-HT transporter (SERT)): do not interact with the SERT
dose to induce a full psychedelic experience (humans; (51, 86)): about 300 mg
potency relative to LSD (times less potent) (humans; (86)): 1000-3000 times
potency relative to psilocybin (times less potent) (humans; (86)): around 30 times
subjective effect duration (humans; moderate dose (86)): 10 to 12 h
duration of subjective effects (healthy male subjects; [9]): 12 to 14 h
onset of subjective effects (healthy male subjects; [9]): ≤ 30 min
share excreted in urine as this species after mescaline (healthy male subjects; [9]): 55-60%
time of peak subjective effects (healthy male subjects; [9]): 4 h
onset of subjective effects (healthy male subjects; 500 mg mescaline hydrochloride orally, listed as mescaline hydrochloride): approximately 30 min
delay of the peak subjective response compared with the plasma peak (healthy male subjects; 500 mg orally): about 2 hours
radioactivity administered excreted within 24 hours (healthy male subjects; 500 mg orally): 87%
radioactivity administered excreted within 48 h (healthy male subjects; 500 mg orally): 92%
half-life (healthy male subjects; mescaline hydrochloride 500 mg orally, radioactivity ingested as mescaline): approximately six
abuse-related rewarding effects (rodent): no abuse-related rewarding effects
area under the effect-time curve, visual and auditory perception (VAS) (healthy subjects [5]; doses used): similar
bad drug effect (VAS) peaks (healthy subjects [5]; doses used): peaks lower for LSD and mescaline compared with psilocybin
changed time perception (VAS) (healthy subjects [5]; doses used): trends toward lower changes
ego-dissolution (VAS) (healthy subjects [5]; doses used): lower ratings
nausea (VAS) (healthy subjects [5]; doses used): lowest nausea ratings
openness (VAS) (healthy subjects [5]; doses used): smallest peak effect but a longer lasting effect compared with psilocybin
synesthesia, "sounds influenced what I saw" (VAS) (healthy subjects [5]; doses used): lower ratings
visual and auditory perception change (VAS), ratings/peak (healthy subjects [5]; doses used): lower peak effects than both psilocybin and LSD
talkative (VAS) (healthy subjects [5]; first hours): longest effect
area under the effect over time curve (VAS any/good drug effect) (healthy subjects [5]; [8]): similar
peak effect (VAS any/good drug effect) (healthy subjects [5]; [8]): lower than those of psilocybin and LSD
time to peak of subjective effects (VAS any/good drug effect) (healthy subjects [5]; [8]): took longer to peak compared to those of psilocybin and LSD
duration of subjective effects (VAS any drug effect) (healthy subjects [5]; six healthy volunteers): lasted similarly long

CN(C)CCc1c[nH]c2cccc(O)c12 [Psilocin, reference compound]
interaction with the SERT (5-HT transporter (SERT)): inhibits the 5-HT transporter (SERT)

COc1cc(CC(=O)O)cc(OC)c1OC [TMPA, 3,4,5-trimethoxyphenylacetic acid]
share excreted in urine as this species after mescaline (healthy male subjects; [9]): 27-30%
psychoactive or cardiostimulant properties of metabolites administered to humans (healthy male subjects): not to have psychoactive or cardiostimulant properties

CN(C)CCc1c[nH]c2cccc(OP(=O)(O)O)c12 [psilocybin, reference compound]
increase in blood pressure and body temperature compared with the other active substances (healthy subjects [6]; 6 subjects): more pronounced and shorter-lasting increase
mean total LC score (healthy subjects [2]): 6.8
nausea (VAS) (healthy subjects [5]; doses used): highest

COc1cc(CCNC(C)=O)cc(O)c1OC [N-acetyl-(3,4,dimethoxy-5-hydroxyphenylethalymine]
share excreted in urine as this species after mescaline (healthy male subjects; [9]): 5%

COc1cc(CCNC(C)=O)cc(OC)c1OC [NAM, N-acetyl-mescaline]
share excreted in urine as this species after mescaline (healthy male subjects; [9]): 0.1%
psychoactive or cardiostimulant properties of metabolites administered to humans (healthy male subjects): not to have psychoactive or cardiostimulant properties

CNC(C)Cc1ccc2c(c1)OCO2 (stereo not drawn) [MDMA, 3,4-methylendioxymethamphetamine]
AED score [3]: 1.3
OB score [3]: 9.3
VR score [3]: 4.1
